# Experimental data reported in article PMC11434868, “Synthesis and Antiproliferative Effect of 3,4,5-Trimethoxylated Chalcones on Colorectal and Prostatic Cancer Cells” (Pharmaceuticals, 2024).
# Where two headings read alike, the source gives them in different places.
# Columns and labels:
# HCT116 [1] = assay: MTT assay, antiproliferative effect on HCT116; format: cell-based; settings: Homo sapiens
# Outline: (§1)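 Cells grown 24 h in RPMI 1640/10% FBS, then treated. MTT: 5 nM–50 μM for 24 and 48 h, OD 550 nm, viability vs control, IC50 from dose–response. Trypan blue: 48 h treatment, viable/non-viable counts by automated counter, IC50 from % viable cells vs control.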
# HT-29 [2] = assay: MTT assay, antiproliferative effect on HT-29; format: cell-based, human; settings: Homo sapiens
# Outline: as §1
# PC3 [3] = assay: MTT assay, antiproliferative effect on PC3; format: cell-based; settings: Homo sapiens
# Outline: as §1
# HCT116 [4] = assay: Trypan blue dye exclusion method on HCT116; format: cell-based, human
# Description: (§2) Human CRC (HCT116 and HT-29) and PCa (DU145 and PC3) cell lines were purchased from the American Type Culture Collection (ATCC—LGC Standards, Molsheim, France). All cells were grown in RPMI 1640 medium supplemented with 10% FBS, 1% L-glutamine, 100 U/mL penicillin, and 100 μg/mL streptomycin. Cultures were maintained in a humidified atmosphere containing 5% CO2 at 37 °C. Cells were seeded in 75 cm^2 culture flasks at 1.2 × 10^4 cells/cm^2 for HCT116, DU145, and PC3 cells, and 2.0 × 10^4 for HT-29 cells. Cells were grown for 24 h in culture medium prior to exposure or not to obtain the synthesized compounds. Stock solutions (10^−2 M in DMSO) of each compound were diluted in culture medium to obtain appropriate final concentrations.
# (§3) • (a) MTT assay: The antiproliferative effect of all compounds was determined using MTT assay (a metabolic activity test). Briefly, cells were seeded in 96-well culture plates at 4 × 10^3 cells/well for HCT116, PC3, and DU145 cells and 6 × 10^3 cells/well for HT-29 cells (100 µL/well), and grown for 24 h in culture medium prior to exposure or not to obtain compounds 1–15 with concentrations ranging from 5 nM to 50 μM. After 24 and 48 h of treatment, MTT (5 mg/mL in PBS) was added and incubated for another 3 h. MTT was then removed from the wells before adding 100 μL/well of DMSO. The optical density was detected with a microplate reader (Multiskan FC, Thermoscientific, Bordeaux, France) at 550 nm and cell viability was expressed as a percentage of each treatment condition compared to control cells. IC50 values were calculated for all compounds from the dose–response curve. Data are expressed as the arithmetic means ± standard error of the mean (SEM) of separate experiments. All experiments were performed at least in triplicate. • (b) Trypan blue dye exclusion method: Cells were grown for 24 h then treated with compounds 10 and 13 at indicated concentrations. After 48 h of treatment, cells were trypsinized and resuspended in complete medium. Each sample was mixed with Trypan blue solution (0.14% in HBSS, Invitrogen-GIBCO, ThermoFisher, Illkirch, France). Colored (non-viable) and dye-excluding (viable) cells were counted with the LUNA-II automated cell Counter (Logos Biosystems; MC2, Aubière, France). The control was normalized to 100% including viable and dead cells. The results indicated on the histograms were expressed as the percentage of cells compared to the control. IC50 values were determined from the percentages of viable cells compared to the control.
# HT-29 [5] = assay: Trypan blue dye exclusion method on HT-29; format: cell-based, human
# Description: as §2, §3
# DU145 = assay: Trypan blue dye exclusion method on DU145; format: cell-based, human
# Description: as §2, §3
# PC3 [6] = assay: Trypan blue dye exclusion method on PC3; format: cell-based, human
# Description: as §2, §3
# [7] = system: caspase-3 and PARP in HCT116 cells; assay: Western blot of apoptosis-related proteins in HCT116; format: cell-based, human; settings: HCT116, 48 h;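 also: compared with untreated control cells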
# Description: (§4) For total protein extraction, collected samples of each condition were washed in PBS. Then, the total cell pool was centrifuged at 200 g for 5 min at 4 °C and homogenized in RIPA lysis buffer (50 mM HEPES, pH 7.5, 150 mM NaCl, 1% sodium deoxycholate, 1% NP-40, 0.1% SDS, […] of aprotinin) containing protease inhibitors according to the manufacturer’s instructions. After quantification of protein levels using the Bradford method, proteins ([…]) were separated on 12.5% SDS-PAGE gels and transferred to PVDF membranes (GE Healthcare Life Science—Fisher Scientific). Membranes were probed with respective antibodies against human caspase-3, cleaved caspase-3, and PARP according to the manufacturer’s instructions. After incubation with appropriate secondary antibodies, blots were developed using the “ImmobilonWestern” substrate, following the manufacturer’s protocol, and G:BOX system (Syngene, Cambridge, UK). Membranes were then reblotted with human anti-β-actin used as a loading control.
# [8] = system: caspase-3 and PARP in HT-29 cells; assay: Western blot of apoptosis-related proteins in HT-29; format: cell-based, human; settings: HT-29, 48 h;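 also: compared with untreated control cells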
# Description: as §4
# [9] = system: caspase-3 and PARP in DU145 cells; assay: Western blot of apoptosis-related proteins in DU145; format: cell-based, human; settings: DU145, 48 h;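 also: compared with untreated control cells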
# Description: as §4
# [10] = system: caspase-3 and PARP in PC3 cells; assay: Western blot of apoptosis-related proteins in PC3; format: cell-based, human; settings: PC3, 48 h;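 also: compared with untreated control cells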
# Description: as §4
# [11] = system: human CRC (HCT116 and HT-29) and human PCa (DU145 and PC3) cell lines; assay: MTT assay, summary statements over the cell lines; format: cell-based; settings: 48 h, read-out: IC50 towards the selected cell lines
# Description: as §2, §3
smiles,measurement,setting,value
"COc1cc(C(=O)/C=C/c2c[nH]c3ccccc23)cc(OC)c1OC [chalcone 10, (E)-3-(1H-indol-3-yl)-1-(3,4,5-trimethoxyphenyl)prop-2-en-1-one]",IC50,"HCT116 [1]; HCT-116, 24 h, read-out: IC50 HCT116 24 h",282 ± 12 nM
same,IC50,"HCT116 [1]; HCT-116, 48 h, read-out: IC50 HCT116 48 h",39 ± 1 nM
same,IC50,"HT-29 [2]; HT-29, 24 h, 24 h, read-out: IC50 HT-29 24 h",41 ± 1 nM
same,IC50,"HT-29 [2]; HT-29, 48 h, 48 h, read-out: IC50 HT-29 48 h",28 ± 1 nM
same,IC50,"PC3 [3]; PC-3, 24 h, read-out: IC50 PC3 24 h",44 ± 6 nM
same,IC50,"PC3 [3]; PC-3, 48 h, read-out: IC50 PC3 48 h",17 ± 5 nM
same,Dead cells,"HCT116 [4]; HCT116, 48 h, 0.050 µM",6.76%
same,Dead cells,"HCT116 [4]; HCT116, 48 h, 0.100 µM",0.85%
same,IC50,"HCT116 [4]; Homo sapiens, HCT-116, 48 h, from percentages of viable cells, read-out: IC50 Trypan Blue Test HCT116",43 nM
same,viability at 0.01 µM,"HCT116 [4]; Homo sapiens, HCT-116, HCT116, 48 h, 0.010 µM, percentage of cells compared to control, read-out: Viable cells",97.7%
same,viability at 0.05 µM,"HCT116 [4]; Homo sapiens, HCT-116, HCT116, 48 h, 0.050 µM, read-out: Viable cells",43.2%
same,viability at 0.1 µM,"HCT116 [4]; Homo sapiens, HCT-116, HCT116, 48 h, 0.100 µM, read-out: Viable cells",17.4%
same,Dead cells,"HT-29 [5]; HT-29, 48 h, 0.010 µM",3.78%
same,Dead cells,"HT-29 [5]; HT-29, 48 h, 0.050 µM",3.36%
same,Dead cells,"HT-29 [5]; HT-29, 48 h, 0.100 µM",1.68%
same,IC50,"HT-29 [5]; Homo sapiens, HT-29, 48 h, from percentages of viable cells, read-out: IC50 Trypan Blue Test HT-29",21 nM
same,viability at 0.01 µM,"HT-29 [5]; Homo sapiens, HT-29, 48 h, 0.010 µM, read-out: Viable cells",76.2%
same,viability at 0.05 µM,"HT-29 [5]; Homo sapiens, HT-29, 48 h, 0.050 µM, read-out: Viable cells",15.9%
same,viability at 0.1 µM,"HT-29 [5]; Homo sapiens, HT-29, 48 h, 0.100 µM, read-out: Viable cells",10.7%
same,Dead cells,"DU145; DU145, 48 h, 0.010 µM",2.21%
same,Dead cells,"DU145; DU145, 48 h, 0.050 µM",3.40%
same,Dead cells,"DU145; DU145, 48 h, 0.100 µM",5.30%
same,IC50,"DU145; Homo sapiens, DU-145, 48 h, from percentages of viable cells, read-out: IC50 Trypan Blue Test DU145",40 nM
same,viability at 0.01 µM,"DU145; Homo sapiens, DU-145, DU145, 48 h, 0.010 µM, read-out: Viable cells",88.9%
same,viability at 0.05 µM,"DU145; Homo sapiens, DU-145, DU145, 48 h, 0.050 µM, read-out: Viable cells",40.6%
same,viability at 0.1 µM,"DU145; Homo sapiens, DU-145, DU145, 48 h, 0.100 µM, read-out: Viable cells",18.4%
same,IC50,"PC3 [6]; Homo sapiens, PC-3, 48 h, from percentages of viable cells, read-out: IC50 Trypan Blue Test PC3",32 nM
same,viability at 0.01 µM,"PC3 [6]; Homo sapiens, PC-3, PC3, 48 h, 0.010 µM, read-out: Viable cells",91.9%
same,viability at 0.05 µM,"PC3 [6]; Homo sapiens, PC-3, PC3, 48 h, 0.050 µM, read-out: Viable cells",31.3%
same,viability at 0.1 µM,"PC3 [6]; Homo sapiens, PC-3, PC3, 48 h, 0.100 µM, read-out: Viable cells",16.5%
same,Dead cells,"PC3 [6]; PC3, 48 h, 0.010 µM",9.33%
same,Dead cells,"PC3 [6]; PC3, 48 h, 0.100 µM",4.44%
same,PARP cleavage (89 kDa fragment),[7],induced PARP cleavage
same,cleaved caspase-3,[7],clearly observed
same,native PARP expression,[7],strong decreased expression
same,pro-caspase-3 expression,[7],decreased
same,PARP cleavage (89 kDa fragment),[8],induced PARP cleavage
same,cleaved caspase-3,[8],more weakly produced
same,native PARP expression,[8],strong decreased expression
same,pro-caspase-3 expression,[8],decreased
same,PARP cleavage (89 kDa fragment),[9],induced PARP cleavage
same,cleaved caspase-3,[9],clearly observed
same,native PARP expression,[9],strong decreased expression
same,pro-caspase-3 expression,[9],decrease was less marked
same,PARP cleavage (89 kDa fragment),[10],induced PARP cleavage
same,cleaved caspase-3,[10],clearly observed
same,native PARP expression,[10],strong decreased expression
same,pro-caspase-3 expression,[10],decreased
same,IC50,[11],< 40 nM
same,IC50,[11]; Homo sapiens,< 50 nM
